Results reported in patent publication US20110130460A1, “INCREASED CREATINE RETENTION WITH SOLUBLE FIBRES” (priority 2007, published 2011).

What was measured:
[1] = Urinary creatine and creatinine excretion after a single 2 g creatine dose; conditions: whatever the form, excretion slightly less than 1 g/24 h
Protocol: (§1) The health status questionnaire was filled in again.
An aliquot (10 mL) was stored at −20° C.

[2] = Plasma creatine kinetics after a single 2 g creatine dose (one-open compartmental model); assay type: in vivo, human
Protocol: as §1
(§2) Venous blood was collected on heparin as an anticoagulant. The tubes were placed immediately on ice and centrifuged at 3000 g for 6 min at 4° C. Plasma (900 μL) was deproteinized with sulfosalicylic acid 5% (300 μL) and centrifuged again at 3000 g for 6min. NaOH 0.1M (90 μL) was added to supernatant (300 μL) to obtain a pH value of about 7.8. Samples were stored at −20° C.
(§3) An aliquot (10 mL) was stored at −20° C. […] An aliquot was stored at −80° C.
Using a Marquardt algorithm, all kinetics were fitted with the following equation:
C(FD/V*(ka/(ka−kel))*(exp(−kel*(t−tlag))−exp(−ka*(t−tlag)))) (equation 1)
where C is the plasma creatine concentration minus the basal concentration (μM) • if C 0, then data were removed • F is the bioavailability • D is the dose (2 g or 15 300 μmol) • is the volume of distribution • ka is the velocity constant of absorption (first order, h^−1) • kel is the velocity constant of elimination (first order, h^−1) • t is the time (h) • tlag is the lag-time (h)
This equation corresponds to a one-open compartmental model in which ka, kel and tlag are the primary parameters. Knowing their value, new kinetic parameters of plasma creatine were calculated:
AUCO,∞:the area under the curve integrated from zero to infinity
Since the bioavailability (F) may not be measured, only the apparent volume of distribution and the apparent clearance can be estimated:
Vd: the apparent volume of distribution (Vd=V/F, L)
C: the apparent clearance (Cl=Kel·Vd, L.h^−1)

[3] = Plasma and erythrocyte creatine and creatinine after one week creatine supplementation (3×2 g per day); assay type: in vivo, human
Protocol: as §1, §2
After the first centrifugation, erythrocytes were washed twice with a similar volume of physiological water (0.9% NaCl, centrifugation: 1000 g, 5 min, 4° C.). After three frozen and defrozen procedures, erythrocytes (300 μL) were deproteinized with sulfosalicylic acid 5% (600 μL) and then centrifuged at 3000 g during 6 min. Supernatant was collected and centrifuged again. The clear supernatant was neutralized with NaOH 0.1M.
as §3

[4] = Creatine and creatinine in 24 h feces by HPLC; assay type: in vivo, human; conditions: basal or supplemented, could not be quantified
Protocol: as §1, §3
Both creatine and creatinine content in feces was analyzed by HPLC at 205 nm. After dilution of a feces aliquot in 0.045M ammonium sulfate containing an internal standard (4-[2-aminoethyl]-benzene sulfonamide), the sample was filtered on a 10 kDa membrane. The following conditions were used to identify creatine: 2 Beckman RP-C18 Ultrasphere ODS columns 5μ 25 cm*4.6 mm; elution: A/B (70/30) with 0.05% anhydrous trifluoroacetic acid (TFA) at 1.0 mL/min; A: 0.1% H3PO4 in deionised H2O; B: 1.4 mg sodium dodecylsulfate/mL acetonitril. […] The values reported for creatine in the results section correspond to highest possible estimates including a probable overestimation.

[5] = Questionnaire on side effects after creatine supplementation; assay type: in vivo, human; conditions: after each period of one week creatine supplementation vs initial visit
Description: as §1

[6] = 21 g/d creatine for 2 weeks; levels within the normal range; cited from earlier work

SMILES: CN(CC(=O)O)C(=N)N [creatine]
- Creatinine urinary excretion, effect of creatine ingestion [1]: not affected
- apparent volume of distribution relative to body mass ([2]; after ingestion of 2 g creatine, not influenced by the form ingested): about 75 % of body mass
- change of plasma creatinine concentration after single dose ([2]; eight hours following ingestion of 2 g creatine, independent of treatment, basal 53.5±1.50 μM): changed by only a few μM
- half-life ([2]; human, plasma, oral, after ingestion of 2 g creatine, mean over the forms, read-out: mean half-life of elimination (converted)): 1.09 ± 0.06 h
- erythrocyte creatinine concentration during the experiment ([3]; basal about 25 μM): remained stable
- plasma creatine concentration after supplementation, fold higher ([3]; one week, 3×2 g per day, fasted state, post vs pre): 11±2.5 fold
- increase of erythrocyte creatine concentration after supplementation ([3]; one week, 3×2 g per day, independent of the form ingested): 88±22%
- maximal estimated value of creatine in feces [4]: ≤ 50±5.7 μg per gram fresh feces
- frequency of declared health troubles (side effects) [5]: No difference was observed in the frequency of declared health troubles except for muscle cramps which were less frequently reported
- excretion of methylamine and formaldehyde [6]: increased excretion of methylamine and formaldehyde
